Results: ChEMBL document CHEMBL1212922, “Crystal structure-based selective targeting of the pyridoxal 5'-phosphate dependent enzyme kynurenine aminotransferase II for cognitive enhancement” (J Med Chem, 2010)

Assays:
[1] = molecular target: T1, Kynurenine/alpha-aminoadipate aminotransferase, mitochondrial (Homo sapiens, UniProt Q8N5Z0); assay: Inhibition of human recombinant MBP-KAT2 expressed in HEK293 cells assessed as conversion of L-kynurenine to kynurenic acid after 1 hr
[2] = molecular target: T2, Kynurenine--oxoglutarate transaminase 1 (Homo sapiens, UniProt Q16773); assay: Inhibition of human recombinant MBP-KAT1 expressed in Escherichia coli BL21 assessed as conversion of L-kynurenine to kynurenic acid after 1 hr
T2 sequence (Q16773 whole entry): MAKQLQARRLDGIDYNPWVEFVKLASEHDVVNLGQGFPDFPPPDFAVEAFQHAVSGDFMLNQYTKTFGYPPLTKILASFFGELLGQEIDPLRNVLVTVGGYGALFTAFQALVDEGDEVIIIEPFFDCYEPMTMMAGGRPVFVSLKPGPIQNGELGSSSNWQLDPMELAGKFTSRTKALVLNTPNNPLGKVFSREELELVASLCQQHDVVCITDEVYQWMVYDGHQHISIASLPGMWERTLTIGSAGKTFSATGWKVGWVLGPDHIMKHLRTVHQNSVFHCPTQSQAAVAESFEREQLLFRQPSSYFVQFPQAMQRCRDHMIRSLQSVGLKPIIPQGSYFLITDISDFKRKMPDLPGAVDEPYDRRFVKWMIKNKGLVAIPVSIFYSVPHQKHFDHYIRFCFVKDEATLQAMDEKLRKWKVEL

[3] = molecular target: Kynurenine 3-monooxygenase (Homo sapiens) (UniProt O15229); assay: Inhibition of kynurenine 3-monooxygenase in human prefrontal cortex homogenates at 100 uM; type: tissue-based
[4] = molecular target: T1, Kynurenine/alpha-aminoadipate aminotransferase, mitochondrial; assay: Inhibition of KAT2 in human prefrontal cortex homogenates; type: tissue-based
[5] = molecular target: T2, Kynurenine--oxoglutarate transaminase 1; assay: Inhibition of KAT1 in human prefrontal cortex homogenates; type: tissue-based
[6] = molecular target: T3, Kynureninase (Homo sapiens) (UniProt Q16719); assay: Inhibition of kynureninase in human prefrontal cortex homogenates at 100 uM; type: tissue-based
T3 sequence (whole entry): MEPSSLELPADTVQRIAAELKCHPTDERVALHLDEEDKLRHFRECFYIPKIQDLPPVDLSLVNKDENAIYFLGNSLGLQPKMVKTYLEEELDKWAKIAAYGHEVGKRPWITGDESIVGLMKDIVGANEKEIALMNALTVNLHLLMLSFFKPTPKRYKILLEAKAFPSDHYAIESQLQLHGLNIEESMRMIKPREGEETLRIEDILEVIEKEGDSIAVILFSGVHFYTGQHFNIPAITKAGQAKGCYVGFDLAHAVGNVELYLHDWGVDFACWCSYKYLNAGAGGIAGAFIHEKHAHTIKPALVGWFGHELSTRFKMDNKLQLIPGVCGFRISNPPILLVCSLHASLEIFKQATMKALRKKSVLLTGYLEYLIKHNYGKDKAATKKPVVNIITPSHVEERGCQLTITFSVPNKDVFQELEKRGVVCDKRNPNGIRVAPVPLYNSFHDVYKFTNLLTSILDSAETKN

[7] = molecular target: Kynurenine/alpha-aminoadipate aminotransferase, mitochondrial (Rattus norvegicus, UniProt Q64602); assay: Inhibition of rat brain KAT2
Sequence of Kynurenine/alpha-aminoadipate aminotransferase, mitochondrial (Rattus norvegicus, UniProt Q64602) (Q64602 whole entry): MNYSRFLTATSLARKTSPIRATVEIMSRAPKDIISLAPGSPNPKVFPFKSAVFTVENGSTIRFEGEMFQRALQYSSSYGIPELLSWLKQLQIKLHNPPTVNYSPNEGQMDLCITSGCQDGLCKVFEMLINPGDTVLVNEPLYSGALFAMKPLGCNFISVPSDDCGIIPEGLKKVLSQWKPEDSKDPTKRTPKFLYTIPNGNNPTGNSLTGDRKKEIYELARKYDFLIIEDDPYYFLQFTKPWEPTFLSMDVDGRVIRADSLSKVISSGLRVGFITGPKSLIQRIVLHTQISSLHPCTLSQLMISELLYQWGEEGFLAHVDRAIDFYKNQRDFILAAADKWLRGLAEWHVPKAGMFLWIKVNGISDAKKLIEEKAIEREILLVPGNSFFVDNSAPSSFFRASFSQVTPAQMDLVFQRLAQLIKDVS

T1 sequence (Q8N5Z0 whole entry): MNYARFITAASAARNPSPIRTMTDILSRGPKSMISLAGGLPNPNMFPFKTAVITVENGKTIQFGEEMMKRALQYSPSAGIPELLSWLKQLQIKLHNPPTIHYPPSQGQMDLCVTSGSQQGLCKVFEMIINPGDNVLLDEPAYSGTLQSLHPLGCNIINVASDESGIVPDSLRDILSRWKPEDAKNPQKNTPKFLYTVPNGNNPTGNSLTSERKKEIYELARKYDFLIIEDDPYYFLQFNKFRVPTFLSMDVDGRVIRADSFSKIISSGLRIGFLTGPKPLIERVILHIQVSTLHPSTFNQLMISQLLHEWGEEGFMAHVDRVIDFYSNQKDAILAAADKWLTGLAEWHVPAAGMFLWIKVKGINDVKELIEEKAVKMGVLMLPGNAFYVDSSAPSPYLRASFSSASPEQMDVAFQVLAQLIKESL
Sequence of Kynurenine 3-monooxygenase (Homo sapiens) (O15229 whole entry, looked up): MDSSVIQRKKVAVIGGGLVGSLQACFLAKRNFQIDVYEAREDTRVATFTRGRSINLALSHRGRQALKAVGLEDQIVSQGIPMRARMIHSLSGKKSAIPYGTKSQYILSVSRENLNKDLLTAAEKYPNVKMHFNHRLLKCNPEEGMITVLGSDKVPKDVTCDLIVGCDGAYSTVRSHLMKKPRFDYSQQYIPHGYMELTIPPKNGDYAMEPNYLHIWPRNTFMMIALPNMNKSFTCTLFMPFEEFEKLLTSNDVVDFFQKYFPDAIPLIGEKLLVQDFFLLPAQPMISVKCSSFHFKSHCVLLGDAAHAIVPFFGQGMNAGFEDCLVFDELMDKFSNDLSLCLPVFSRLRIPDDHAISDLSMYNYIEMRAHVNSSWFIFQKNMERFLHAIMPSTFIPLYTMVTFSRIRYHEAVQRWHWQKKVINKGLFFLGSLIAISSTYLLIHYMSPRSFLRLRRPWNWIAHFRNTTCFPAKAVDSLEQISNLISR

Compound	IC50 [1] [µM]	IC50 [2] [µM]	inhibition [3] [%]	IC50 [4] [µM]	IC50 [5] [µM]	inhibition [6] [%]	IC50 [7] [µM]
C[C@@H]1COc2c(N3CCN(N)CC3)c(F)cc3c(=O)c(C(=O)O)cn1c23	1.5	–	–	–	–	–	–
C[C@H]1COc2c(N3CCN(N)CC3)c(F)cc3c(=O)c(C(=O)O)cn1c23	0.91	> 30	8.3	1	> 30	5.1	1
